Structures can show the parent of a compound that is named as a salt. Where two headings read alike, the source gives them in different places.
Target: T1, CBS (Homo sapiens, UniProt P35520)
T1 sequence (P35520 1-551): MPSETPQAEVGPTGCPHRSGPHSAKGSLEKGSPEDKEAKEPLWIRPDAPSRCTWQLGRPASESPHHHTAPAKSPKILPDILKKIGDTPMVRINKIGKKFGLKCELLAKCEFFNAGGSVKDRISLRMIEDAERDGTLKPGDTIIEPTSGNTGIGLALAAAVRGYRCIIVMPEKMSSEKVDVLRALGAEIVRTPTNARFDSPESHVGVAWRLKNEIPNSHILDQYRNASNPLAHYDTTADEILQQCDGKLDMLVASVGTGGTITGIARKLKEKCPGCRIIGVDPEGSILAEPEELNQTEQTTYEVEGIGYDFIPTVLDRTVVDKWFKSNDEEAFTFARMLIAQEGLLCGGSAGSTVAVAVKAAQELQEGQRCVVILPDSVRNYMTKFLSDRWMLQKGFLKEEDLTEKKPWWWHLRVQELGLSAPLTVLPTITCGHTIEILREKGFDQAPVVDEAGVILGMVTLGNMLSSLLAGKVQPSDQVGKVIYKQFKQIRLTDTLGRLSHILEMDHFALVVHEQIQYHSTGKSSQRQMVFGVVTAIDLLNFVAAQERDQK
Test: CBS inhibitor screen: H2S production by recombinant CBS (methylene blue assay)
Format: biochemical
Set-up: These studies used full-length human CBS enzyme; made in house; host or cells: E. coli BL21 (DE3) Codon Plus
Details: for inhibition at 100 µM: read-out: Inhibition of CBS activity at 100 μM
Text: Studies have been performed characterizing, in detail, the specificity and selectivity of all known H2S biosynthesis inhibitors, using recombinant CBS and CSE enzymes. These studies used full-length human CBS enzyme, and a colorimetric ‘capture’ reaction of the H2S produced by these enzymes, an assay generally known as the ‘methylene blue assay’. This assay is used in a 96-well plate format, as well as in combination with a second screening method based on a fluorescent dye.
Human recombinant CBS is expressed as described (Asimakopoulou et al, (2013) Br J Pharmacol. 169(4):922-32). A library of pharmacologically active compounds (e.g., LOPAC library, Sigma; 1240 compounds) is tested on homocysteine-induced H2S production. In certain aspects the assay is in a 96-well format. In certain aspects H2S production is measured by the methylene blue assay (Asimakopoulou et al., (2013) Br J Pharmacol. 169(4):922-32).
Plasmids, bacterial strains and media. E. coli BL21 (DE3) Codon Plus is used as a host strain to express recombinant human CSE or CBS. CSE cDNA was cloned into pGEX-4T3 and CBS into pGEX-Kg to create N-terminal GSH-S-transferase (GST) fusion proteins. The expression vectors were transformed and plated on LB-agar plates, supplemented with ampicillin (100 μg/mL).
The expression and purification of CSE and CBS is performed as described previously with modifications (Frank et al., (2008) Arch Biochem Biophys 470:64-72; Huang et al., (2009) J Mol Biol 396: 708-18). Briefly, BL21(DE3) Codon Plus cells containing either the expression vector pGEX-4T3/GST-CSE or pGEX-Kg/GST-CBS are grown at 37° C. and 180 r.p.m. in LB broth medium containing 100 μg/mL ampicillin to an absorption of 0.6-0.8 at 600 nm. In addition, 0.3 mM d-ALA is added to the culture containing pGEX-Kg/GST-CBS. Then protein expression is induced by addition of 0.1 mM IPTG. Cells containing pGEX-4T-3/GST-CSE are incubated overnight at 18° C., whereas cells containing pGEXKg/GST-CBS are incubated overnight at 30° C. Culture is then centrifuged at 4° C. and 5000×g for 10 min and the cell pellet was resuspended in PBS (140 mM NaCl, 2.7 mM KCl, 10 mM Na2HPO4, 1.8 mM KH2PO4, pH 7.8) and stored at −20° C. overnight. After thawing, the suspension is sonicated in lysis buffer containing PBS and protease inhibitor cocktail for GST-CSE and PBS, 5 mM DTT, 1% Triton X-100, […] and protease inhibitor cocktail for GST-CBS. After centrifugation at 4° C. for 30 min, the soluble fraction containing either the GST-CSE or the GST-CBS recombinant protein is loaded onto a GSTrap FF 1 mL affinity column that has been equilibrated with binding buffer PBS. The column was consecutively washed with five column volumes of binding buffer. Proteins attached to the column, including GST-CSE or GST-CBS recombinant proteins, are eluted with five column volumes of elution buffer (50 mM Tris-HCl, 10 mM reduced GSH, pH 8.0) and then dialysed and concentrated in 10 mM sodium phosphate buffer pH 8.2 and DTT 1 mM. The purity of the recombinant enzymes was checked by SDS-PAGE on 12% polyacrylamide gels after staining of protein bands with Coomassie Blue R-250. Protein concentration was determined using the DC protein assay kit.
H2S determination is performed according to Stipanuk and Beck ((1982) Biochem J 206:267-77) with some modifications. In the case of the CSE enzyme, an assay consist of a 100 μL reaction mixture containing 5 μg of the purified CSE enzyme, 0.01 mM PLP, 1 mM L-cys, and 50 mM sodium phosphate buffer pH 8.2. For the CBS enzyme, the reaction mixture contains the same as for the CSE plus 1 mM homocysteine. The inhibitors can be added to the reaction before L-cys is added to the solution. Reactions are initiated by transferring the reaction solutions from ice to a 37° C. shaking water bath. After incubation at 37° C. the reaction is terminated by adding 1% ZnAc to trap H2S followed by 10% TCA to precipitate proteins. […]

[1] = 100 μM, homocysteine-induced H2S production, LOPAC library screen

| Compound | inhibition at 100 µM [1] [%] | other results |
| --- | --- | --- |
| CC(=O)c1c(O)c(C)c(O)c(Cc2c(O)c3c(c(C(=O)/C=C/c4ccccc4)c2O)OC(C)(C)C=C3)c1O [Rottlerin] |  | inhibition at 100 µM: 96% |
| COc1cccc2c1C(=O)c1c(O)c3c(c(O)c1C2=O)C[C@@](O)(C(=O)CO)C[C@@H]3O[C@H]1C[C@H](N)[C@H](O)[C@H](C)O1 [Doxorubicin] | 52 |  |
| NC(Cc1cc(O)c(O)cc1O)C(=O)O (racemic) [6-Hydroxy-DL-DOPA] |  | Inhibition of CBS activity at 100 μM [1]: 77% |
| C[C@@](Cc1ccc(O)c(O)c1)(NN)C(=O)O [Carbidopa] | 45 |  |
| C[C@H](CCC(=O)O)[C@H]1CC[C@H]2[C@@H]3CC[C@@H]4C[C@H](O)CC[C@]4(C)[C@H]3CC[C@]12C [Lithocholic acid] | 42 |  |
| CN1CC[C@@]2(C)c3cc(OC(=O)Nc4ccccc4)ccc3N(C)[C@@H]12 [Phenserine] | 53 |  |
| COc1cc(C(=O)NS(=O)(=O)c2ccccc2C)ccc1Cc1cn(C)c2ccc(NC(=O)OC3CCCC3)cc12 [Zafirlukast] | 81 |  |
| CC(C)=CC[C@@H](O)C1=CC(=O)c2c(O)ccc(O)c2C1=O [Shikonin] | 51 |  |
| CC(C)C(=O)c1c(C(C)C)nn2ccccc12 [Ibudilast] | 30 |  |
| O=C1Nc2ccc(I)cc2/C1=C/c1cc(Br)c(O)c(Br)c1 [GW5074] |  | Inhibition of CBS activity at 100 μM [1]: 87% |
| C[C@@H](N)[C@H]1CC[C@H](C(=O)Nc2ccncc2)CC1 [Compound Y-27632] | 94 |  |
| C[C@]12CC[C@@H]3c4ccc(O)cc4CC[C@H]3[C@@H]1CC[C@@H]2O [Estradiol] | 53 |  |
| O=C(O)C1=CC(=C(c2ccc(O)c(C(=O)O)c2)c2ccc(O)c(C(=O)O)c2)C=CC1=O [Aurintricarboxylic acid] | 75 |  |
| C[n+]1c2cc(N)ccc2cc2ccc(N)cc21 [Acriflavinium] |  | Inhibition of CBS activity at 100 μM [1]: 64% |
| CC(C)(Sc1ccc(CCN(CCCCC2CCCCC2)C(=O)NC2CCCCC2)cc1)C(=O)O [GW7647] | 73 |  |
| Cl.NC[C@@H]1O[C@H](C23CC4CC(CC(C4)C2)C3)Cc2c1ccc(O)c2O [A-77636 hydrochloride] |  | Inhibition of CBS activity at 100 μM [1]: 30% |

| Compound | inhibition at 100 µM [1] [%] | other results |
| --- | --- | --- |
| CC[C@H](c1ccc(O)cc1)[C@@H](CC)c1ccc(O)cc1 [Hexestrol] | 50 |  |
| COC1=C(OC)C(=O)c2ccccc2C1=O [2,3-Dimethoxy-1,4-naphthoquinone] | 98 |  |
| CN(C)[C@@H]1C(O)=C(C(N)=O)C(=O)[C@@]2(O)C(O)=C3C(=O)c4c(O)ccc(Cl)c4[C@@H](O)[C@H]3C[C@@H]12 [Demeclocycline hydrochloride] | 96 |  |
| CC1=C(/C=C/C(C)=C/C=C/C(C)=C/C(=O)O)C(C)(C)CCC1 [Retinoic acid] | 43 |  |
| C=C(c1ccc(C(=O)O)cc1)c1cc2c(cc1C)C(C)(C)CCC2(C)C [Bexarotene] | 58 |  |
| CN1CC[C@@]2(C)c3cc(O)ccc3N(C)[C@@H]12.O=C(O)/C=C/C(=O)O [Eseroline fumarate] |  | Inhibition of CBS activity at 100 μM [1]: 60% |
| Cc1c(C)c2c(c(C)c1O)CCC(C)(COc1ccc(CC3SC(=O)NC3=O)cc1)O2 (centres unmarked) [Troglitazone] | 30 |  |
| CN(C)[C@@H]1C(O)=C(C(N)=O)C(=O)[C@@]2(O)C(O)=C3C(=O)c4c(O)cccc4[C@@](C)(O)[C@H]3C[C@@H]12 [Tetracycline] | 43 |  |
| Cc1cc(C(C#N)c2ccc(Cl)cc2)c(Cl)cc1NC(=O)c1cc(I)cc(I)c1O (centres unmarked) [Closantel] | 72 |  |
| Cc1ccc(C(=O)Nc2ccc(S(=O)(=O)O)c3cc(S(=O)(=O)O)cc(S(=O)(=O)O)c23)cc1NC(=O)c1cccc(NC(=O)Nc2cccc(C(=O)Nc3cc(C(=O)Nc4ccc(S(=O)(=O)O)c5cc(S(=O)(=O)O)cc(S(=O)(=O)O)c45)ccc3C)c2)c1 [Suramin sodium] | 57 |  |
| CCC1(c2ccccc2)NC(=O)N(C)C1=O (centres unmarked) [Mephenytoin] | 32 |  |
| C=C1CC[C@H](O)C/C1=C/C=C1\CCC[C@]2(C)[C@@H]([C@H](C)CCCC(C)(C)O)CC[C@@H]12 [Calcifediol] | 32 |  |
| CN(N=O)c1ccc(O)c(O)c1 [Me-3,4-dephostatin] |  | Inhibition of CBS activity at 100 μM [1]: 85% |
| O=C(c1ccc(OCCN2CCCCC2)cc1)c1c(-c2ccc(O)cc2)sc2cc(O)ccc12 [Raloxifene] | 60 |  |
| C[C@H]1c2cccc(O)c2C(=O)C2=C(O)[C@]3(O)C(=O)C(C(N)=O)=C(O)[C@@H](N(C)C)[C@@H]3[C@@H](O)[C@@H]21 [Doxycycline] | 57 |  |
| CC[N+](C)(CC)CCC[n+]1c(-c2ccccc2)c2cc(N)ccc2c2ccc(N)cc21.[I-].[I-] [Propidium iodide] |  | Inhibition of CBS activity at 100 μM [1]: 41% |

— patent US10335382B2, “Use of hydrogen sulfide synthesis inhibitors for cancer therapy” (THE BOARD OF REGENTS OF THE UNIVERSITY OF TEXAS SYSTEM, priority 2013, dated 2019)
